The record followed here is US10882856B2 (BeiGene, Ltd., priority 2017, dated 2021).

Experiment [1] has as its target T1, IDO1 (Homo sapiens, UniProt P14902). The experiment is described as follows: Hela cell-based IDO1 assay. The following applies: Hela cells. The procedure, abridged: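 HeLa cells were plated at 8000 per well in 96-well plates containing phenol red-free DMEM with 10% FBS, and after 4 hours compound dilutions made in DMSO were added together with IFN-γ (final 100 ng/mL) and 0.4 mM L-Trp before 48 hours at 37 °C, 5% CO2. Supernatants were deproteinised with trichloroacetic acid, mixed with 2% 4-(dimethylamino)benzaldehyde and read at 480 nm for kynurenine. Four-parameter logistic fits were run in XLfit. Potency was derived from these fits.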

The target in experiment [2] is T2, cellular TDO2 in HEK293-TDO2 cells (Homo sapiens, UniProt P48775).
T2 construct: expressed in transfected cells; host or cells: HEK293 (ATCC), stably transfected
T2 sequence (P48775 whole entry): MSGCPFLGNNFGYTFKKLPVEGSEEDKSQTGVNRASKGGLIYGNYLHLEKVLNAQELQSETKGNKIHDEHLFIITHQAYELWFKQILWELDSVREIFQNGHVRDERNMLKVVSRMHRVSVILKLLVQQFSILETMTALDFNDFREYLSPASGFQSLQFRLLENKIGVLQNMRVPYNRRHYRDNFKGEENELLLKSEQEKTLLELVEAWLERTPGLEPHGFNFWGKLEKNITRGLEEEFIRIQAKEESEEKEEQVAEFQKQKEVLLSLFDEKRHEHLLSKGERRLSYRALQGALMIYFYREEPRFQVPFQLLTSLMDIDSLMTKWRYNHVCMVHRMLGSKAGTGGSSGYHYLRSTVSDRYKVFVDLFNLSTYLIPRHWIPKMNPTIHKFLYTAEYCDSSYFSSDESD
The experiment is described as follows: 293-TDO2 cell-based assay (Kyn colorimetric). Conditions: 48 hours of incubation. How it is done: The inhibitory activity of TDO2 inhibitors is determined by using a colorimetric reaction to measure Kyn generated from L-Trp (L-Tryptophon) oxidation by cellular TDO2 in HEK293-TDO2 cells stably transfected with a plasmid expression of Tryptophan 2,3-dioxygenase (for short, 293-TDO2).
HEK293 cells were obtained from the American Type Culture Collection and 293-TDO2 were recovered in 10% FBS-containing phenol red-free DMEM medium. Cells were plated onto a 96-well plate (100 μl/well) at 10000 cells per well and kept at 37° C. in a humidified incubator supplied with 5% CO2. 4 hours later, Compounds at different concentrations diluted in dimethylsulfoxide (DMSO) were added to plate. Cells were kept at 37° C. in a humidified incubator supplied with 5% CO2. After 48 hours of incubation, 100 μl supernatant from each well was removed to a new plate. The protein in the medium was precipitated with the addition of 8 μl 6N trichloroacetic acid. The plate was incubated at 60° C. for 30 minutes and then centrifugation at 2500 rpm for 10 minutes to remove sediments. 80 μl supernatants were carefully removed to a new clean plate and added with an equal volume of 2% 4-(Dimethylamino) benzaldehyde (D2004, sigma) dissolved in glacial acetic acid. The absorbance at 480 nm wavelength derived from Kyn was measured using a PHERAstar FS plate reader (BMG LABTECH). The IC50 for each compound was derived from fitting the dose-response data to the four-parameter logistic model by using XLfit software (IDBS).

For experiment [3], the target named is T1, IDO1. The experiment is described as follows: IDO1 enzymatic assay. In kind it is biochemical. The following applies: read-out: Enzyme IC50 IDO1. More on the design: His tag (N); made in house; host or cells: E. coli. The procedure, abridged: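 Recombinant N-terminally His-tagged IDO1 purified from E. coli (50 nM) was incubated with compound or DMSO and 1.3 mM D-tryptophan, 5 mM L-ascorbic acid, methylene blue and 0.4 mg/mL catalase. The buffer was 50 mM potassium phosphate pH 7.5 with 0.1% BSA, at 24 °C for 1.5 hours. N'-formylkynurenine formation was then read continuously at 321 nm for 1 hour, and activity was taken as the slope. IC50 was calculated from remaining enzyme activity across increasing compound concentrations.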

A value given as a limit tells only on which side of the number the result lay.

T1 sequence (P14902 whole entry): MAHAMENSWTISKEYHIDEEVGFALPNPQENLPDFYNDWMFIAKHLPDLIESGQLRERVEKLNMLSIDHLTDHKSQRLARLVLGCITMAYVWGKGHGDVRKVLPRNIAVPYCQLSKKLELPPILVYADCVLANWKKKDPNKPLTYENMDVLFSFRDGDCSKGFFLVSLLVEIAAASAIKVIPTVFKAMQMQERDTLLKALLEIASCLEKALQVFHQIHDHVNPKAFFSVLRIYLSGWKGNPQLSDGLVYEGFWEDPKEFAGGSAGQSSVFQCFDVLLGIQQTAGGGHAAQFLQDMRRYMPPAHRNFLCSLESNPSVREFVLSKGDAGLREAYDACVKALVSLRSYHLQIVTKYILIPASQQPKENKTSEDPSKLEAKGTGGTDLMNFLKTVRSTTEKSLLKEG

For the molecule `O=C(O)c1ccc([C@H]2CC[C@H]([C@@H](O)c3c(C4CC4)ccc4cncn34)CC2)cc1` (single isomer, unassigned) [Example D111b], the EC50 in experiment [1] and in experiment [2] was above 10 µM throughout. Moreover, in experiment [3], the IC50 was 1.2 µM.
As to `Oc1ccccc1[C@H]1CC[C@H]([C@H](O)c2c(C3CC3)ccc3cncn23)CC1` (single isomer, unassigned) [Example D112a], the concentration giving a half-maximal response (EC50) is 0.026 µM in experiment [1] and above 10 µM in experiment [2]. Further, the IC50 in experiment [3] was found to be 0.015 µM.
As to `Oc1ccccc1[C@H]1CC[C@H]([C@@H](O)c2c(C3CC3)ccc3cncn23)CC1` (single isomer, unassigned) [Example D112b], the EC50 in experiment [1] and in experiment [2] was above 10 µM throughout. For the same molecule, in experiment [3], the IC50 was determined as 1.7 µM.
On to `OC(c1c(C2CC2)ccc2cncn12)[C@H]1CC[C@H](c2ccc(OC3CCOCC3)cc2)CC1` (single isomer, unassigned) [Example D114b], for which the values for the EC50 in experiment [1] and in experiment [2] were 3.97 µM and above 10 µM, respectively. The IC50 in experiment [3] stood at 2.6 µM.
With `CC(C)c1ccc2cncn2c1[C@H](O)[C@H]1CC[C@H](c2ccc(Cl)cc2)CC1` (single isomer, unassigned) [Example D115b], the EC50 in experiment [1] was 5.68 µM; in experiment [2], above 10 µM. Further, the IC50 in experiment [3] came to 4.3 µM.
The like results for `O[C@@H](c1c(C2CC2)ccc2cncn12)[C@H]1CC[C@H](c2cccc(Cl)c2)CC1` (single isomer, unassigned) [Example D116b] were, in that order, 6.15 µM, above 10 µM and 5.9 µM.
For `O[C@H](c1c(C2CC2)ccc2cncn12)[C@H]1CC[C@H](c2ccccc2Cl)CC1` (single isomer, unassigned) [Example D117a], in that order: 0.492 µM, above 10 µM and 0.03 µM.
For the molecule `O[C@@H](c1c(C2CC2)ccc2cncn12)[C@H]1CC[C@H](c2ccccc2Cl)CC1` (single isomer, unassigned) [Example D117b], the EC50 was 0.099 µM in experiment [1] and above 10 µM in experiment [2]. Also, the half-inhibitory concentration (IC50) in experiment [3] is above 10 µM.
For `O[C@@H](c1c(C2CC2)ccc2cncn12)[C@H]1CC[C@H](c2ccc(Br)cc2)CC1` (single isomer, unassigned) [Example D118b], the EC50 in experiment [1] was 8.41 µM; in experiment [2] it was above 10 µM. In addition, in experiment [3], the IC50 was above 10 µM.
Regarding `O[C@@H](c1c(C2CC2)ccc2cncn12)[C@H]1CC[C@H](c2ccc(-c3ccccc3)cc2)CC1` (single isomer, unassigned) [Example D119b], the EC50 is 3.53 µM in experiment [1] and above 10 µM in experiment [2]. Also, the IC50 in experiment [3] is 2.2 µM.
Regarding `O[C@@H](c1c(C2CC2)ccc2cncn12)[C@H]1CC[C@H](c2ccc(Oc3ccccc3)cc2)CC1` (single isomer, unassigned) [Example D120b], the values for the EC50 in experiment [1] and in experiment [2] were 4.31 µM and above 10 µM, respectively. Moreover, the IC50 in experiment [3] was 3.7 µM.
With `Nc1ccc([C@H]2CC[C@H]([C@H](O)c3c(C4CC4)ccc4cncn34)CC2)cc1` (single isomer, unassigned) [Example D122a], the EC50 in experiment [1] was 0.103 µM; in experiment [2], above 10 µM. Also, the IC50 in experiment [3] came out at 0.018 µM.
Turning to `Nc1ccc([C@H]2CC[C@H]([C@@H](O)c3c(C4CC4)ccc4cncn34)CC2)cc1` (single isomer, unassigned) [Example D122b], the EC50 in experiment [1] and in experiment [2] was above 10 µM in each case. Further, in experiment [3], the IC50 is 5.2 µM.
On to `CNC(=O)c1ccc([C@H]2CC[C@H]([C@H](O)c3c(C4CC4)ccc4cncn34)CC2)cc1` (single isomer, unassigned) [Example D124a], for which the EC50 is 0.138 µM in experiment [1] and above 10 µM in experiment [2]. Moreover, in experiment [3], the IC50 turned out to be 0.019 µM.
The like results for `CNC(=O)c1ccc([C@H]2CC[C@H]([C@@H](O)c3c(C4CC4)ccc4cncn34)CC2)cc1` (single isomer, unassigned) [Example D124b] were, in that order, 5.23 µM, above 10 µM and 0.97 µM.
For the molecule `CN(C)C(=O)c1ccc([C@H]2CC[C@H]([C@H](O)c3c(C4CC4)ccc4cncn34)CC2)cc1` (single isomer, unassigned) [Example D125a], the figures for the 50% effective concentration (EC50) in experiment [1] and in experiment [2] were 0.46 µM and above 10 µM, respectively. Besides, in experiment [3], the IC50 was found to be 0.014 µM.
As to `CN(C)C(=O)c1ccc([C@H]2CC[C@H]([C@@H](O)c3c(C4CC4)ccc4cncn34)CC2)cc1` (single isomer, unassigned) [Example D125b], the EC50 in experiment [1] is 9.77 µM; in experiment [2], above 10 µM. Further, the IC50 in experiment [3] worked out at 1.6 µM.
Take `O[C@H](c1c(C2CC2)ccc2cncn12)[C@H]1CC[C@H](c2ccc(F)c(F)c2)CC1` (single isomer, unassigned) [Example D126a]: the results for the EC50 in experiment [1] and in experiment [2] were 0.031 µM and above 10 µM, respectively. In addition, in experiment [3], the IC50 was found to be 0.018 µM.
As for `O[C@@H](c1c(C2CC2)ccc2cncn12)[C@H]1CC[C@H](c2ccc(F)c(F)c2)CC1` (single isomer, unassigned) [Example D126b], the figures for the EC50 in experiment [1] and in experiment [2] were 6.52 µM and above 10 µM, respectively. The IC50 in experiment [3] was above 10 µM.
On to `O[C@H](c1c(C2CC2)ccc2cncn12)[C@H]1CC[C@H](c2ccc(F)cc2F)CC1` (single isomer, unassigned) [Example D127a], for which the figures for the EC50 in experiment [1] and in experiment [2] were 0.083 µM and above 10 µM, respectively. For the same molecule, the IC50 in experiment [3] was determined as 0.016 µM.
Consider `O[C@@H](c1c(C2CC2)ccc2cncn12)[C@H]1CC[C@H](c2ccc(F)cc2F)CC1` (single isomer, unassigned) [Example D127b], for which the EC50 in experiment [1] is 4.62 µM; in experiment [2], above 10 µM. For the same molecule, the 50% inhibitory concentration (IC50) in experiment [3] turned out to be 2.7 µM.
As to `O[C@H](c1c(C2CC2)ccc2cncn12)[C@H]1CC[C@H](c2ccc(Cl)c(F)c2)CC1` (single isomer, unassigned) [Example D128a], the EC50 in experiment [1] was 0.127 µM; in experiment [2], above 10 µM. In addition, the IC50 in experiment [3] is 0.019 µM.
For `O[C@@H](c1c(C2CC2)ccc2cncn12)[C@H]1CC[C@H](c2ccc(Cl)c(F)c2)CC1` (single isomer, unassigned) [Example D128b], in that order: 8.57 µM, above 10 µM and above 10 µM.
Consider `O[C@H](c1c(C2CC2)ccc2cncn12)[C@H]1CC[C@H](c2ccc(F)c(Cl)c2)CC1` (single isomer, unassigned) [Example D129a], for which the figures for the EC50 in experiment [1] and in experiment [2] were 0.056 µM and above 10 µM, respectively. Moreover, in experiment [3], the IC50 was 0.021 µM.
Consider `O[C@@H](c1c(C2CC2)ccc2cncn12)[C@H]1CC[C@H](c2ccc(F)c(Cl)c2)CC1` (single isomer, unassigned) [Example D129b], for which the EC50 is 5.12 µM in experiment [1] and above 10 µM in experiment [2]. Besides, the IC50 in experiment [3] is 7.67 µM.
Consider `OC(c1c(C2CC2)ccc2cncn12)[C@H]1CC[C@H](c2ccc(F)cc2Cl)CC1` (single isomer, unassigned) [Example D130a], for which the EC50 in experiment [1] is 0.203 µM; in experiment [2], above 10 µM. The IC50 in experiment [3] was determined as 0.03 µM.
As to `OC(c1c(C2CC2)ccc2cncn12)[C@H]1CC[C@H](c2ccc(F)cc2Cl)CC1` (single isomer, unassigned) [Example D130b], the results for the EC50 in experiment [1] and in experiment [2] were 9.37 µM and above 10 µM, respectively. In addition, the IC50 in experiment [3] is above 10 µM.
Consider `OC(c1c(C2CC2)ccc2cncn12)[C@H]1CC[C@H](c2ccc(Cl)cc2F)CC1` (single isomer, unassigned) [Example D131a], for which the values for the EC50 in experiment [1] and in experiment [2] were 0.275 µM and above 10 µM, respectively. Moreover, the IC50 in experiment [3] came to 0.032 µM.
For `OC(c1c(C2CC2)ccc2cncn12)[C@H]1CC[C@H](c2cccc(F)c2F)CC1` (single isomer, unassigned) [Example D132a], in that order: 0.113 µM, above 10 µM and 0.021 µM.
Take `O[C@@H](c1c(C2CC2)ccc2cncn12)[C@H]1CC[C@H](c2ccc3sccc3c2)CC1` (single isomer, unassigned) [Example D133b]: the EC50 in experiment [1] is 8.9 µM; in experiment [2], above 10 µM. Further, in experiment [3], the 50% inhibitory concentration (IC50) was above 10 µM.

By EC50 is commonly meant the concentration that produces a half-maximal response. The low end stands for an effect from little substance, the high end for a need for much substance. What is called IC50 is the concentration needed to halve the response being measured.
